# Data reported in patent publication US6583147B1, “Pyrazolopyrimidinone derivatives for the treatment of impotence” (Dong A Pharm Co., Ltd., priority 1998, dated 2003).
# pIC50: −log10 of the molar value. Read-outs that look alike come from different tables or passages of the source.
# Tests used:
# rats = experiment: Penile erection test using rats; type: in vivo, rat; details: oral single dose 10 mg/kg in 0.5% methyl cellulose, observed for 2 hours
# [1] = biological target: T1, Phosphodiesterase-5 enzyme (PDE 5) (Homo sapiens, UniProt O76074); experiment: Test for phosphodiesterase-5 (PDE 5) activity; type: biochemical; details: PDE 5 fraction from human corpus cavernosal tissues
# T1 construct: separated by HPLC (Mono Q anion exchange column) with concentration gradient of 0-500 mM NaCl to elute PDE isozymes; from tissue; host or cells: human corpus cavernosal tissue
# [2] = biological target: T2, Phosphodiesterase-3 enzyme (PDE 3) (Oryctolagus cuniculus, UniProt G1ST54); experiment: Test for phosphodiesterase-3 (PDE 3) activity; type: biochemical; details: PDE 3 fraction from platelets of a rabbit
# T2 construct: The supernatant was separated by DEAE-cellulose column chromatography (Whatman DE52 bead); from tissue; host or cells: rabbit platelets
# T2 sequence (G1ST54 1-1128): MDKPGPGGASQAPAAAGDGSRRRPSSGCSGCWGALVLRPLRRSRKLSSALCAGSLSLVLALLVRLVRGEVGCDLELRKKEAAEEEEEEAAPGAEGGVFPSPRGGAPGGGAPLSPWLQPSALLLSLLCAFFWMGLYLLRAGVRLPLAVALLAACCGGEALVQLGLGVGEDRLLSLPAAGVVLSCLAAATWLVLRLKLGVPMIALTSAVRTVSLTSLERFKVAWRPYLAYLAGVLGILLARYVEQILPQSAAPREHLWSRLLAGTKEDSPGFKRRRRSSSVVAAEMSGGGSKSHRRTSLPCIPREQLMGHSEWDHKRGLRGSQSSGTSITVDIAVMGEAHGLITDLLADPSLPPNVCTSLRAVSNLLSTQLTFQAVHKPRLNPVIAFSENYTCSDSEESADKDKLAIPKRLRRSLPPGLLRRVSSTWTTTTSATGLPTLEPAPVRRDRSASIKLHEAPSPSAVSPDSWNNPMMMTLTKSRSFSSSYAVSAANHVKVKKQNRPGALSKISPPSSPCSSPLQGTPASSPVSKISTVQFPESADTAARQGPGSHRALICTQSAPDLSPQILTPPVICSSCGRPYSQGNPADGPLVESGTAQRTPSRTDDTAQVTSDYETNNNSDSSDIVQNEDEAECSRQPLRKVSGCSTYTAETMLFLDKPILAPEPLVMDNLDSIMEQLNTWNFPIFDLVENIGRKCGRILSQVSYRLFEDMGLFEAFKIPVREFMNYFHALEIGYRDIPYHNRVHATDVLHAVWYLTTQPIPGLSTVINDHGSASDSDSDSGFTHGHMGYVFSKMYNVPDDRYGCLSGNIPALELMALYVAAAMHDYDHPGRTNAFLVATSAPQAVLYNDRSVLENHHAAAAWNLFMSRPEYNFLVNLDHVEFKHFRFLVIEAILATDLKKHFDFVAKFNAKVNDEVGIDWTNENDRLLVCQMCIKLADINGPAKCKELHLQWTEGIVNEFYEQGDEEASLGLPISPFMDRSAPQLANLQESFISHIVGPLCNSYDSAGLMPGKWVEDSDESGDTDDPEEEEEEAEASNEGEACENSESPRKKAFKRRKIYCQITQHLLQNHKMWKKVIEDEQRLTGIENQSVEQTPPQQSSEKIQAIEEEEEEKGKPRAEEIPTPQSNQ
# Protocol: Phosphodiesterase-3 enzyme (PDE 3) was separated from platelets of a rabbit. About 60 ml of blood was collected from a puncture of the abdominal artery of a rabbit in heparinized syringes. Platelet-rich plasma was harvested by centrifugation for 5 min at 450×g and further centrifuged for 15 min at 1,200×g to precipitate the platelets. The platelets were resuspended in homogenizing buffer (50 mM Tris-HCl, 1 mM MgCl2, pH 7.4), homogenized at 4° C. and ultrasonicated (30 sec/ml). The homogenized solution was centrifuged (105,000×g) for 1 hr at 4° C. to obtain the supernatant in which PDE was dissolved. The supernatant was separated by DEAE-cellulose column chromatography (Whatman DE52 bead) by using eluent (50 mM Tris-HCl, 3.75mM2-mercaptoethanol, pH 6.0) with concentration gradient of 0-1 M sodium acetate to elute PDE isozymes. The PDE activity was measured on the each column fraction by the following process to separate PDE 3 fraction and the inhibition for PDE 3 of the compounds of formula 1 was measured by using the fraction.
# To 1.5 ml tube containing 100 ul of reaction mixture (15 mM Tris-HCl, 5 mM MgCl2, 0.5 mg/ml BSA, pH 7.4) were added appropriate amount of PDE 3 fraction and PDE inhibitor and the solution was mixed well. After [^3H]-cAMP or [^3H]-cGMP (500 nM, 2 uCi/ml) was added, the mixture was reacted in incubator of 30° C. for about 1 hour and the reaction was quenched by putting the tube into boiling water for about 45 seconds to 2 min. The tube was chilled in ice bath for about 5 min. To this tube was added snake venom (1 mg/ml, 100 ul) or 5′-nucleotidase (0.1 unit/tube) and the mixture was reacted in incubator of 37° C. for 10 min and chilled in ice bath. 3 times volume of methanol to the resin was added to the anion exchange resin (Bio-Rad resin, AG1-X2, 200-400 mesh) which had been already washed with 0.5 N HCl, H2O, 0.5 N NaOH, H2O, 0.5 N HCl and H2O in order and adjusted to pH 5. Then 1 ml of the pretreated resin was added to the each tube with vortexing. The mixture was left at 4° C. for 15 min with occasional vortexing and centrifuged (10,000 rpm) for about 5 min to sediment the resin. The supernatant (700 ul) was transferred to a liquid scintillation vial, and mixed with 10 ml of scintillation cocktail. After stabilizing the mixture by leaving it overnight, the radioactivity of the tube was measured by β-counter.
# [3] = Acute oral toxicity test in rats; details: SD, rat, in vivo
# [4] = Solubility in buffer solution in pH=2&5; type: physicochemical; details: for solubility at 30 min: 20 °C, thermodynamic from solid
# Protocol: According to that defined in the Korea Pharmacopoeia, citrate-HCl buffer (pH 2) and citrate-NaOH buffer (pH 5) solutions were added to the powdered compounds of formula 1, respectively. After subsequent severe shaking for 30 sec every 5 min in […] for 30 min, the level of compounds in the filtrate was measured by high performance liquid chromatography.
# [5] = Metabolism in rat liver (9,000xg supernatant fraction with NADPH); type: in vitro ADME; details: 10 ug/ml, 37° C., 1 hr, rat liver 9,000xg supernatant with NADPH generating solution
# Protocol: In order to evaluate the extent of metabolism of the compounds of formula 1, the metabolism in rat liver was studied as below similar to the reported method (C. L. Litterist, E. G. Mimnaugh, R. I. Reagan and T. G. Gram., Drug. Metabol. Disposit., 1975, 3, 259-265). In short, the disappearance of compounds after incubation in 9, 000×g supernatant fraction of rat liver homogenate in the presence of NADPH (reduced nicotinamide adenine dinucleotide phosphate) was evaluated.
# First, Sprague-Dawley rat (Korea Experiment Animals, SPF) liver was isolated after perfusion through portal vein with 0.1 M phosphate buffer of pH 7.0 using tissue homogenizer at 4° C. After centrifugation at 9,000×g for 20 min, the supernatants were collected.
# The compound stock solution was spiked (10 ug/ml) into each of the eppendorf tubes containing 1 ml of the mixed solution composing 1 volume of supernatants and 2 volumes of generating solution. The generating solution contains 1 mM NADP, 10 mM glucose-6-phosphate, 50 mM nicotinamide and 5 MM MgCl2 in 0.1 M phosphate buffer of pH 7.0. After vortex-mixing, each test tube was incubated in a water bath kept at 37° C. After 1 hr, was added acetonitrile to the reaction mixture and centrifuged. 100 ul of aliquot of the supernatant was sampled from each test tube for measuring the remnants by high performance liquid chromatography.
# [6] = 1 g/kg, rats, oral single dose, read-out: lethal dose (LD50) of oral administration
# [7] = citrate-HCl buffer, pH 2, aqueous buffer, citrate-HCl buffer (pH 2), read-out: solubility pH 2
# [8] = citrate-NaOH buffer, pH 5, aqueous buffer, citrate-NaOH buffer (pH 5), read-out: solubility pH 5
smiles,measurement,setting,value
"CCOc1ccc(S(=O)(=O)NCc2ccccn2)cc1-c1nc2c(CC(C)C)nn(C)c2c(=O)[nH]1 [Example 51, 5-[2-ethoxy-5-(2-pyridylmethylamidosulfonyl)phenyl]-1-methyl-3-isobutyl-1,6-dihydro-7H-pyrazolo(4,3-d)pyrimidin-7-one]",PEI (penile erection index),rats,233.3 ± 152.8
same,genital grooming (number of genital groomings),rats,3.0 ± 2.0
same,pIC50,[1],8.82
same,pIC50,[2],< 3.70
same,LD50,[3]; [6],> 1000 mg/kg
same,solubility at 30 min,[4]; [7],215 µg/mL
same,solubility at 30 min,[4]; [8],1 µg/mL
same,remnants (%),[5],70.4%
"CCCOc1ccc(S(=O)(=O)NCC2CCCN2C)cc1-c1nc2c(CCC)nn(C)c2c(=O)[nH]1 (stereo not shown) [Example 56, 5-[2-propyloxy-5-(1-methyl-2-pyrrolidinylmethylamidosulfonyl)phenyl]-1-methyl-3-propyl-1,6-dihydro-7H-pyrazolo(4,3-d)pyrimidin-7-one]",PEI (penile erection index),rats,200.0 ± 81.7
same,genital grooming (number of genital groomings),rats,2.0 ± 0.0
same,pIC50,[1],7.85
same,pIC50,[2],< 3.70
same,LD50,[3]; [6],> 1000 mg/kg
same,solubility pH 2,[4]; citrate-HCl buffer (pH 2),3918 ug/ml
same,solubility at 30 min,[4]; [7],3720 to 5360 µg/mL
same,solubility pH 5,[4]; citrate-NaOH buffer (pH 5),6361 ug/ml
same,solubility at 30 min,[4]; [8],4920 to 14800 µg/mL
same,remnants (%),[5],83.9%
"CCOc1ccc(S(=O)(=O)NCC2CCCN2C)cc1-c1nc2c(CC(C)C)nn(C)c2c(=O)[nH]1 (stereo not shown) [Example 58, 5-[2-ethoxy-5-(1-methyl-2-pyrrolidinylmethylamidosulfonyl)phenyl]-1-methyl-3-isobutyl-1,6-dihydro-7H-pyrazolo(4,3-d)pyrimidin-7-one]",PEI (penile erection index),rats,275.0 ± 170.8
same,genital grooming (number of genital groomings),rats,3.0 ± 1.8
same,pIC50,[1],7.80
same,pIC50,[2],< 3.70
same,LD50,[3]; [6],> 1000 mg/kg
same,solubility pH 2,[4]; citrate-HCl buffer (pH 2),3722 ug/ml
same,solubility at 30 min,[4]; [7],3720 to 5360 µg/mL
same,solubility pH 5,[4]; citrate-NaOH buffer (pH 5),9003 ug/ml
same,solubility at 30 min,[4]; [8],4920 to 14800 µg/mL
same,remnants (%),[5],93.5%
"CCCOc1ccc(S(=O)(=O)NCC2CCN(C)C2)cc1-c1nc2c(CCC)nn(C)c2c(=O)[nH]1 (stereo not shown) [Example 60, 5-[2-propyloxy-5-(1-methyl-3-pyrrolidinylmethylamidosulfonyl)phenyl]-1-methyl-3-propyl-1,6-dihydro-7H-pyrazolo(4,3-d)pyrimidin-7-one]",PEI (penile erection index),rats,300.0 ± 81.7
same,genital grooming (number of genital groomings),rats,2.8 ± 0.5
same,pIC50,[1],7.46
same,pIC50,[2],< 3.70
same,LD50,[3]; [6],> 1000 mg/kg
same,solubility pH 2,[4]; citrate-HCl buffer (pH 2),4497 ug/ml
same,solubility at 30 min,[4]; [7],3720 to 5360 µg/mL
same,solubility pH 5,[4]; citrate-NaOH buffer (pH 5),4923 ug/ml
same,solubility at 30 min,[4]; [8],4920 to 14800 µg/mL
same,remnants (%),[5],78.2%
"CCOc1ccc(S(=O)(=O)NCC2CCN(C)C2)cc1-c1nc2c(CC(C)C)nn(C)c2c(=O)[nH]1 (stereo not shown) [Example 62, 5-[2-ethoxy-5-(1-methyl-3-pyrrolidinylmethylamidosulfonyl)phenyl]-1-methyl-3-isobutyl-1,6-dihydro-7H-pyrazolo(4,3-d)pyrimidin-7-one]",PEI (penile erection index),rats,200.0 ± 100.0
same,genital grooming (number of genital groomings),rats,3.0 ± 1.0
same,pIC50,[1],7.38
same,pIC50,[2],3.78
same,LD50,[3]; [6],> 1000 mg/kg
same,solubility pH 2,[4]; citrate-HCl buffer (pH 2),4383 ug/ml
same,solubility at 30 min,[4]; [7],3720 to 5360 µg/mL
same,solubility pH 5,[4]; citrate-NaOH buffer (pH 5),3596 ug/ml
same,solubility at 30 min,[4]; [8],4920 to 14800 µg/mL
same,remnants (%),[5],94.5%
"CCCOc1ccc(S(=O)(=O)NCCC2CCCN2C)cc1-c1nc2c(CCC)nn(C)c2c(=O)[nH]1 (stereo not shown) [Example 68, 5-[2-propyloxy-5-(1-methyl-2-pyrrolidinylethylamidosulfonyl)phenyl]-1-methyl-3-propyl-1,6-dihydro-7H-pyrazolo(4,3-d)pyrimidin-7-one]",PEI (penile erection index),rats,233.3 ± 152.8
same,genital grooming (number of genital groomings),rats,3.0 ± 2.0
same,pIC50,[1],8.05
same,pIC50,[2],4.15
same,LD50,[3]; po,> 1000 mg/kg
same,solubility pH 2,[4]; citrate-HCl buffer (pH 2),5356 ug/ml
same,solubility at 30 min,[4]; [7],3720 to 5360 µg/mL
same,remnants (%),[5],93.0%
"CCOc1ccc(S(=O)(=O)NCCC2CCCN2C)cc1-c1nc2c(CC(C)C)nn(C)c2c(=O)[nH]1 (stereo not shown) [Example 70, 5-[2-ethoxy-5-(1-methyl-2-pyrrolidinylethylamidosulfonyl)phenyl]-1-methyl-3-isobutyl-1,6-dihydro-7H-pyrazolo(4,3-d)pyrimidin-7-one]",PEI (penile erection index),rats,175.0 ± 50.0
same,genital grooming (number of genital groomings),rats,1.8 ± 0.5
same,pIC50,[1],7.69
same,pIC50,[2],4.21
same,LD50,[3]; [6],> 1000 mg/kg
same,solubility at 30 min,[4]; [7],795 µg/mL
same,solubility at 30 min,[4]; [8],708 µg/mL
same,remnants (%),[5],94.1%
